Activity calls are given as the source filed them. The rule behind the calls is not given here.

Data set [1] relates to Caco-2. The data set can be described thus: Inhibition of ATPase measured as increase in ATP level in Caco-2 cells at 20 uM relative to vinblastine after 120 mins. Type of data set: functional, Homo sapiens. Also noted: scale not given: the % may be the effect or the level left.
Data set [2] has as its target T1, ATP-dependent translocase ABCB1 (Homo sapiens, UniProt P08183). Briefly: Inhibition of Pgp measured as doxorubicin accumulation in MCF7/Adr cells at 20 nM by flow cytometry. In kind it is functional, cell-based. The settings on record: nci/adr-res, 0.02 µM.
Data set [3] deals with T1, ATP-dependent translocase ABCB1. Briefly: Inhibition of Pgp measured as inhibition of [3H]vinblastine basolateral to apical transport in Caco-2 cells. In kind it is functional, cell-based. A general note: Caco-2 monolayers are a common model of the intestinal barrier.
In a further data set the test system is NCI/ADR-RES. The data set can be described thus: Cytotoxicity against MCF7/Adr cells at 100 uM after 48 hrs. In kind it is functional, Homo sapiens.
In data set [4] the test system is Caco-2. Briefly: Inhibition of vinblastine-induced ATPase activation in Caco-2 cells. Type of data set: functional.
A further data set addresses D(2) dopamine receptor (Homo sapiens, UniProt P14416). Briefly: Binding affinity to D2 receptor.
Data set [5] concerns the target T2, 5-hydroxytryptamine receptor 1A (Homo sapiens, UniProt P08908).
T2 sequence (P08908 whole entry): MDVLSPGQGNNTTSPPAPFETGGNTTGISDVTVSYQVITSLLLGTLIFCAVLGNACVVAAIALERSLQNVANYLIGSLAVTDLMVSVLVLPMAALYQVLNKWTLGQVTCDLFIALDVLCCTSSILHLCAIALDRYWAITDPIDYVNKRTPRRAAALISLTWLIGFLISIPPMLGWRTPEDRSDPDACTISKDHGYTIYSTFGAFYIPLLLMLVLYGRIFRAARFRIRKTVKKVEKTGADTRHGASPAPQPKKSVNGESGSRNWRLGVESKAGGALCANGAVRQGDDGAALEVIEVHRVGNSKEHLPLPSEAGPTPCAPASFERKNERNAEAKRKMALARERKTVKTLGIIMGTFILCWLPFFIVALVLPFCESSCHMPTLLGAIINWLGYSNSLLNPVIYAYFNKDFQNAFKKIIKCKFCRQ
Briefly: Binding affinity to 5HT1A receptor.

In data set [6] the test system is Caco-2. The data set can be described thus: Inhibition of ATPase measured as ATP availability in Caco-2 cells at 20 nM after 60 mins relative to control. Type of data set: functional, Homo sapiens. Also noted: scale not given: the % may be the effect or the level left.
In data set [7] the test system is Caco-2. Briefly: Inhibition of ATPase measured as ATP availability in Caco-2 cells at 20 nM after 120 mins relative to control. In kind it is functional, Homo sapiens. Also noted: scale not given: the % may be the effect or the level left.
In data set [8] the test system is Caco-2. The data set can be described thus: Inhibition of ATPase measured as ATP availability in Caco-2 cells at 20 nM after 90 mins relative to control. Type of data set: functional, Homo sapiens. Also noted: scale not given: the % may be the effect or the level left.

T1 sequence (P08183 whole entry): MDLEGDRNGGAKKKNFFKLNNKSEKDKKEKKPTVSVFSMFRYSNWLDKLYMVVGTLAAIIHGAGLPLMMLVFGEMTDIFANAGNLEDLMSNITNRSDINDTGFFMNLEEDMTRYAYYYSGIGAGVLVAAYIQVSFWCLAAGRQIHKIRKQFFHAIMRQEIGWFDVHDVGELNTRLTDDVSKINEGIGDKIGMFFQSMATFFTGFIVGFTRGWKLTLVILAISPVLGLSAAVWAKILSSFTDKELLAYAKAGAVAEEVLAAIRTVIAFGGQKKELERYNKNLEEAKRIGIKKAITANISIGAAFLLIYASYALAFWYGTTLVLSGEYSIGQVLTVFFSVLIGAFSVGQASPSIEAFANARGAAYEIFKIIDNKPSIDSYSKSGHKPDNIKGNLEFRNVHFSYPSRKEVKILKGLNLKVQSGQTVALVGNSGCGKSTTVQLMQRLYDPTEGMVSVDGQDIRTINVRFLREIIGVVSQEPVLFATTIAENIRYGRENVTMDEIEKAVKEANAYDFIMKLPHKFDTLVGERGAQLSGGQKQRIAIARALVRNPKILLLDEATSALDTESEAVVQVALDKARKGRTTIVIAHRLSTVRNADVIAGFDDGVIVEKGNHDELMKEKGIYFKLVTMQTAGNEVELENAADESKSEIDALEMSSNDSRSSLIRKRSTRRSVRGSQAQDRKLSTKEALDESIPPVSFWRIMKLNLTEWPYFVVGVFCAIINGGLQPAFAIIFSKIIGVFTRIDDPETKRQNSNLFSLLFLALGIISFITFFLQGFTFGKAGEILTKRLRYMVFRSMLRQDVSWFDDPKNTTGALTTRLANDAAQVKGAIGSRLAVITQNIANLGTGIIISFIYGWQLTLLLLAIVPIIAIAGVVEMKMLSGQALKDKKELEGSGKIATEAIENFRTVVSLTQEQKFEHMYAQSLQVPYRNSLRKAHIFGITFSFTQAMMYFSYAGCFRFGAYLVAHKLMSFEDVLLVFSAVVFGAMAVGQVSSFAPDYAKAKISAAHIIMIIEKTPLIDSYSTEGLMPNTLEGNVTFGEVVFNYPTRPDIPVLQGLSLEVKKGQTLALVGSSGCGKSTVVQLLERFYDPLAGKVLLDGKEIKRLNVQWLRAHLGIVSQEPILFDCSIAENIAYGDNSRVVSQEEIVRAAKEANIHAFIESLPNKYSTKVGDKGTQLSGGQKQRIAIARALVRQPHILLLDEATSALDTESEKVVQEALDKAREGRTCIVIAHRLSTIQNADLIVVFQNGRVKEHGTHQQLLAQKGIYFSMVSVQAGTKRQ
Chain of D(2) dopamine receptor (P14416 whole entry): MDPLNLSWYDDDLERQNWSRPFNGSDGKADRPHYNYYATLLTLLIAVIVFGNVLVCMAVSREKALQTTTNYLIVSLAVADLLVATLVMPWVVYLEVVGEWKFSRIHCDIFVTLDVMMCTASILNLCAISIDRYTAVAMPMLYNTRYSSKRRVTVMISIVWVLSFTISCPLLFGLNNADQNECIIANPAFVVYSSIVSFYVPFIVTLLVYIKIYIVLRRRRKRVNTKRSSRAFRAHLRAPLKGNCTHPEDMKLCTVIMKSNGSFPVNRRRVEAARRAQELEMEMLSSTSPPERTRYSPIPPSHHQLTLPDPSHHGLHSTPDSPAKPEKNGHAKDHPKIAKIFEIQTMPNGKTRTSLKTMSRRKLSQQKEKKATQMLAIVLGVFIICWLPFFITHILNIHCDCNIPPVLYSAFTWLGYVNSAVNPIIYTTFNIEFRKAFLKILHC

Turning to `COc1cccc(CCc2ccccc2OCc2ccccn2)c1`, the Activity is on record as 41% in the data set with Caco-2 [1], “Active” in data set [2] and 8% with NCI/ADR-RES. Besides, in data set [3], it took 27.6 µM to reach a half-maximal effect (EC50). In the data set on Caco-2 [4] (Homo sapiens), the result was inactive. Further, the inhibition constant (Ki) (on D(2) dopamine receptor; in data set [5]) was 5 µM each time.
Consider `c1ccc(CCc2ccccc2OCc2ccccc2)cc1`, for which the results for the Activity in the data set with NCI/ADR-RES and in the data set on Caco-2 [4] were 8% and 50 µM, respectively. Also, the Ki (on D(2) dopamine receptor; in data set [5]) was 5 µM each time.
Regarding `COc1cccc(CCc2ccccc2OCc2cccnc2)c1`, the Activity in the data set on NCI/ADR-RES amounted to 8%; in the data set on Caco-2 [4], 400 µM. For the same compound, the Ki (at D(2) dopamine receptor; in data set [5]) was 5 µM in each case.
In the case of `c1ccc(CCc2ccccc2OCc2ccccn2)cc1`, the Activity was 15% in the data set with Caco-2 [1] and 8% in the data set with NCI/ADR-RES. For the same compound, the EC50 in data set [3] worked out at 100 µM. Further, the result in the data set on Caco-2 [4] (Homo sapiens) was inactive. Moreover, the Ki (at D(2) dopamine receptor; in data set [5]) was 5 µM each time.
In the case of `COc1cc2c(cc1OC)CN(CCc1ccc(NC(=O)c3cccc4c(=O)c5cccc(OC)c5[nH]c34)cc1)CC2`, the outcome in the data set with Caco-2 [4] (Homo sapiens) was inactive.
In turn, `COc1ccc(CCN(C)CCCC(C#N)(c2ccc(OC)c(OC)c2)C(C)C)cc1OC` (centres undefined) yielded an Activity in the data set on NCI/ADR-RES of 95%.
On to `COc1cccc(CCc2ccccc2OCc2ccccc2)c1`, for which the Activity in the data set with Caco-2 [1] was determined as 19%; in the data set with NCI/ADR-RES it was 8%. In [3], this compound registered an EC50 of 92.8 µM. The outcome in the data set with Caco-2 [4] (Homo sapiens) was inactive. The Ki (at D(2) dopamine receptor; in data set [5]) was 5 µM throughout.
Take `COc1cccc(CCc2ccccc2OCc2cccc(OC)c2)c1`: the results for the Activity (in the data set on Caco-2 [1]; in [2]; in the data set on NCI/ADR-RES) were 41%, “Active” and 8%, respectively. The compound further yielded a half-maximal effective concentration (EC50) in [3] of 17.2 µM. The outcome in the data set with Caco-2 [4] (Homo sapiens) was inactive. The Ki (at D(2) dopamine receptor; in [5]) was 5 µM in each case.
`c1ccc(CCc2ccccc2OCc2cccnc2)cc1` had an EC50 in data set [3] of 125 µM. Further, the Activity amounted to 8% with NCI/ADR-RES and 100 µM in the data set on Caco-2 [4]. Moreover, the Ki (on D(2) dopamine receptor; in data set [5]) was 5 µM throughout.
Turning to `CC[C@]1(O)C[C@@H]2CN(CCc3c([nH]c4ccccc34)[C@@](C(=O)OC)(c3cc4c(cc3OC)N(C)[C@H]3[C@@](O)(C(=O)OC)[C@H](OC(C)=O)[C@]5(CC)C=CCN6CC[C@]43[C@@H]65)C2)C1` [VINBLASTINE], the Activity with Caco-2 [6] is recorded as 81%; in the data set with Caco-2 [7] it was 42%; in the data set on Caco-2 [8] it was 72%.

For orientation: EC50 means the concentration needed to bring the measured effect to its halfway point. In general, Ki refers to a dissociation constant, usually derived from enzyme kinetics or from competition with a known ligand.

For the origin of these results see ChEMBL document CHEMBL1137322, “Arylmethyloxyphenyl derivatives: small molecules displaying P-glycoprotein inhibition” (J Med Chem, 2006).
